In the oligonucleotide strings, read from the 5' end, every base follows the letter of its sugar. An asterisk marks phosphorothioate; unmarked linkages are phosphodiester. Other units and linkages are bracketed, terminal groups are in braces. A string of capitals states the bases alone. d = 2'-deoxy (DNA); m = 2'-O-methyl

Common to all, as to type: cell-based
The target in data set [1] is T1, mouse cGAS (Mus musculus, UniProt Q8C6L5).
T1 construct: endogenous in cells; host or cells: LL171 (mouse L929 cells with ISRE-Luciferase)
T1 sequence (Q8C6L5 whole entry): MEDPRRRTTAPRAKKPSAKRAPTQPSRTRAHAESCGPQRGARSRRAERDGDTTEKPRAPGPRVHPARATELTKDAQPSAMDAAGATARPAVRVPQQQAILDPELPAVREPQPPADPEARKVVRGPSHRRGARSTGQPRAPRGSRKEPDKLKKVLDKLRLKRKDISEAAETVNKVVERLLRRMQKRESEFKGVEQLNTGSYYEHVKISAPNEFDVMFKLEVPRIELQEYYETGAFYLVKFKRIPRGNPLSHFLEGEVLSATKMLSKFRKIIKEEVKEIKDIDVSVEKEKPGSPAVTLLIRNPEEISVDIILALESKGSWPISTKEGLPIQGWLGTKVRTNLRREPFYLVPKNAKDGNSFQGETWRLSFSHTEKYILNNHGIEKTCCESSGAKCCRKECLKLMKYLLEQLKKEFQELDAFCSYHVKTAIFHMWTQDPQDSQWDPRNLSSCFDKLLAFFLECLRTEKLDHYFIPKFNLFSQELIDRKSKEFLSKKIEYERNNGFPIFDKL
Put plainly: ISD45-driven ISRE-luciferase in mouse LL171 cells. As to conditions: 2′OMe or PS oligos 50-600 nM, ISD45 2.5 μg/ml overnight. As for the experimental part: (§1) In such examples, inhibition of cGAS activity can be identified by observation of an overall decreased cGAS response of the cell population, or a lower proportion of cells having cGAS-positive activity as compared to positive control condition in which cells are treated with cGAS agonist in the absence of the oligonucleotide (or in the presence of an appropriate control inhibitory agent). In one example, THP-1 or HT-29 cells are transfected with ISD70 and incubated with an oligonucleotide. cGAS activity can then be determined by cytokine (e.g., IP-10 and/or IFNβ) expression (e.g., gene and/or protein expression) and/or secretion levels, such as by ELISA. A similar assay can be performed with LL171 cells transfected with ISD45. […] By way of example, cGAS enzymatic activity may be assessed in vitro using recombinant cGAS and then measuring activity thereof by way of a cGAMP ELISA.
(§2) For cGAS stimulations, cells were treated for indicated duration with ASOs, prior to transfection with ISD70 (human cells) or ISD45 (mouse cells) (the ASOs were not washed off prior to ISD transfection unless otherwise indicated). The cGAS ligands ISD45 (Stetson and Medzhitov, 2006) and ISD70 (also known as VACV-70 (Unterholzner et al., 2010)) (Table 1) were resuspended as follows: 5 1d of sense and 5 μl of antisense strands at 10 μg/μl were added to 90 μl PBS under sterile conditions, heated at 75° C. for 30 min, prior to letting cool down at room temperature and aliquoting (stock at 1 μg/1 l). The ISDs were transfected at a concentration of […] at a ratio of 1 μg:1 μl with Lipofectamine 2000 in Opti-MEM (Thermo Fisher Scientific). HEK-TLR3, HEK-TLR7 and […] were treated with indicated concentration of ASOs for 20-50 min, prior to stimulation with poly(I:C) (Invivogen), R848 (Invivogen), Motolimod (MedChemExpress) and the Class B CpG oligonucleotides ODN 2006 (synthesised by IDT and resuspended in RNase-free TE buffer [Table 1]), respectively. The TLR2/1 agonist PAM3CSK4 (Invivogen), the TLR4 agonist lipopolysaccharide (Invivogen), the Class B CpG oligonucleotides ODN 1826 (synthesised by IDT and resuspended in RNase-free TE buffer), the mouse Sting agonist DMXAA (Cayman) and the human STING agonist (compound #3 from (Raanjulu et al., 2018), referred to as GSK herein—kind gift from Cancer Therapeutics CRC, Australia) were used at indicated concentrations. Aspirin (Sigma—A2093) was resuspended in pure medium to 10 mM, filter sterilised and added to the cells at 2 mM final. All ASOs were synthesised by Integrated DNA Technologies (IDT), and resuspended in RNase-free TE buffer, pH 8.0 (Thermo Fisher Scientific). Cell viability was assessed by adding 1× fresh resazurin solution to the wells (10λ solution made up with 7 mg resazurin [Sigma—R7017] dissolved in 3.5 ml PBS, sterile filtered at […]) for 4 h, prior to reading at with a Fluostar OPTIMA (BMG LABTECH) plate-reader (fluorescence: Excitation 535 nm, Emission 590); wells with medium only and 1× resazurin were used as blanks.
Following transfection, the cells were collected from the 6-wells and aliquoted into 96-wells, just before ASO and overnight TLR stimulation (as above described).

Data set [2] concerns the target T2, cGAS (Homo sapiens, UniProt Q8N884). In words: ISD70-driven IP-10 (and IFN-β) production in THP-1 cells, ELISA. Also on record: endogenous in cells; host or cells: THP-1 (undifferentiated). The following applies: THP-1; 2′OMe or PS oligos, 100-250 nM, pre-treatment as in figure legends; ISD70 2.5 μg/ml. On the procedure: The ability of an oligonucleotide to inhibit cGAS activity can, for example, be analysed by incubating cells which express cGAS with an oligonucleotide, then stimulating said cells with a cGAS agonist (e.g., 70-bp interferon stimulating DNA or ISD70; 45-bp interferon stimulating DNA or ISD45), and analysing the overall cGAS response in the cell population, or analysing the proportion of cells having cGAS-positive activity after a defined period of time.
as §1, §2
(An ELISA detects its analyte on a solid surface through an enzyme-linked reagent.)

Data set [3] addresses T3, human TLR9 (Homo sapiens, UniProt Q9NR96).
T3 construct: HA; host or cells: 293XL-hTLR9-HA (HEK293)
T3 sequence (Q9NR96 26-1032): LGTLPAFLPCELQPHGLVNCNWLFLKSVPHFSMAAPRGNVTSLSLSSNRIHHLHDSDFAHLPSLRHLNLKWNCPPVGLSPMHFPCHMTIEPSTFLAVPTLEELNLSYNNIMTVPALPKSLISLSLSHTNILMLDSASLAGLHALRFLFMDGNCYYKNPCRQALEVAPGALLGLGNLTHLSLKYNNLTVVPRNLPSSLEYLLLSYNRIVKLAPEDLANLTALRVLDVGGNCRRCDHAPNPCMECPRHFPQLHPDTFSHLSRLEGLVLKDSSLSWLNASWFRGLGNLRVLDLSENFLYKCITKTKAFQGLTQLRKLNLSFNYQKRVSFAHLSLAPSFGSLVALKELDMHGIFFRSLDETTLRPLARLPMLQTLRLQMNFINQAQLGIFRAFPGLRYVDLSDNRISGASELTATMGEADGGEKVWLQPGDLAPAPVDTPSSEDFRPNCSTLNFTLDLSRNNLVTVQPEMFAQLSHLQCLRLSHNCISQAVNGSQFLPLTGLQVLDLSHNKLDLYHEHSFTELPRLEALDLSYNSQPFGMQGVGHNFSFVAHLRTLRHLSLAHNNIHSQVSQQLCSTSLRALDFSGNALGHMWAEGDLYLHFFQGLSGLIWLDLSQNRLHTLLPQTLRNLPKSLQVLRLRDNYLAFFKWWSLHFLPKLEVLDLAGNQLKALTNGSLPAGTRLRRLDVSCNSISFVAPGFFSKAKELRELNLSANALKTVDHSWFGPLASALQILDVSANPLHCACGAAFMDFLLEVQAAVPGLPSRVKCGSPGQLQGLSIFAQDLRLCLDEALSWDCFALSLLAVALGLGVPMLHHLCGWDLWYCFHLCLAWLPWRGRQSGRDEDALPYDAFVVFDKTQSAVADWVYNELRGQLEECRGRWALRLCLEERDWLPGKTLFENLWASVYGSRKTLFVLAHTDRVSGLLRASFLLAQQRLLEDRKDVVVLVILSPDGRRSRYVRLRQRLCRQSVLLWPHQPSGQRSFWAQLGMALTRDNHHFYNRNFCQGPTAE
In words: HEK-TLR9 NF-κB-luciferase reporter, ODN2006 stimulation. As to conditions: HEK-TLR9; 500 nM 2′OMe or PS oligos; 200 nM ODN2006. As for the experimental part:
In such examples, inhibition of TLR9 activity can be identified by observation of an overall decreased TLR9 response of the cell population, or a lower proportion of cells having TLR9-positive activity as compared to positive control condition in which cells are treated with TLR9 agonist in the absence of the oligonucleotide (or in the presence of an appropriate control inhibitory agent). In one example, HEK cells are transfected with TLR9 and a NF-κB reporter and incubated with an oligonucleotide and then stimulated with a TLR9 agonist. TLR9 activity can then be determined by a luciferase assay. TLR9 activity can also be analysed by measuring cytokine levels (e.g., IFN, IL-6, TNF and IL-12), for example by ELISA.
as §2
Following transfection, the cells were collected from the 6-wells and aliquoted into 96-wells, just before ASO and overnight TLR stimulation (as above described). Similarly, the LL171 cells expressing and ISRE-Luc reporter were treated overnight. The next day, the cells were lysed in 40 μl (for a 96-well plate) of 1× Glo Lysis buffer (Promega) for 10 min at room temperature. […] was then subjected to firefly luciferase assay using 40 μl of Luciferase Assay Reagent (Promega). Luminescence was quantified with a Fluostar OPTIMA (BMG LABTECH) luminometer.
A general note: In a reporter assay the amount or activity of a reporter protein is the signal.

The target in data set [4] is T2, cGAS. In words: ISD70-driven IP-10 production in HT-29 cells, ELISA. The following applies: ISD70 24 h; for effect on ISD70-induced IP-10 production at increased doses (in words): ASO overnight at 250 or 500 nM; for effect on ISD70-induced IP-10 production at low dose (in words): ASO overnight at 125 nM (62.5-125 nM). Also on record: endogenous in cells. On the procedure: as §1, §2
Human IP-10 and IFN-β levels were measured using supernatants from the different cultures and were quantified using IP-10 (BD Biosciences, #550926) or IFN-β (PBL assay science, #41415-1) ELISA kits respectively, according to the manufacturers' protocol. Tetramethylbenzidine substrate (Thermo Fisher Scientific) was used for quantification of the cytokines on a Fluostar OPTIMA (BMG LABTECH) plate-reader.

Data set [5] has as its target T4, TLR3 (Homo sapiens, UniProt O15455).
T4 sequence (O15455 24-904): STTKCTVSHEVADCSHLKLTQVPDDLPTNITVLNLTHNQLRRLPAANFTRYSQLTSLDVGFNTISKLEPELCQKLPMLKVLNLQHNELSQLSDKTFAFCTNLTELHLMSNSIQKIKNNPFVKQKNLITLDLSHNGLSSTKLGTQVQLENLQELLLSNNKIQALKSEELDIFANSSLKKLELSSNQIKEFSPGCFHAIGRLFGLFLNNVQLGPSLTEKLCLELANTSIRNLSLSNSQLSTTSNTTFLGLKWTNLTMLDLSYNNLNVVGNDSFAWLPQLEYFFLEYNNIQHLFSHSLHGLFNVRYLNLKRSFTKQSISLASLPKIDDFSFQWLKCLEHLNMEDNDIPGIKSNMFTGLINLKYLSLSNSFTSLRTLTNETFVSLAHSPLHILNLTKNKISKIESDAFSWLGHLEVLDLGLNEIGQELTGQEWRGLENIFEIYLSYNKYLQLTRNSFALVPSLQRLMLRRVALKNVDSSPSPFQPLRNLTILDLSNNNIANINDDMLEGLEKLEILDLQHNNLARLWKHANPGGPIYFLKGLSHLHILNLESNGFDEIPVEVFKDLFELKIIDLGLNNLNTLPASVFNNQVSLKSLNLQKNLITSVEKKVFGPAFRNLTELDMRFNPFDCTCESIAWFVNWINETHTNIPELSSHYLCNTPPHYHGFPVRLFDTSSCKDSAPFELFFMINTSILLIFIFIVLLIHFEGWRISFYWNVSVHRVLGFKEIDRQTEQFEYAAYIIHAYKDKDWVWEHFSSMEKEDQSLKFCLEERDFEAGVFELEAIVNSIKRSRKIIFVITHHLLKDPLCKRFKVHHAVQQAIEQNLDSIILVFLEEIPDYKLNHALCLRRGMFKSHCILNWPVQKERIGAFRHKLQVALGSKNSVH
In words: HEK-TLR3 NF-κB-luciferase reporter, poly(I:C) stimulation. Also on record: host or cells: HEK-Blue hTLR3 (HEK293). As to conditions: 100 nM ASOs/ODNs, poly(I:C) 0.5 μg/ml.

T2 sequence (Q8N884 whole entry): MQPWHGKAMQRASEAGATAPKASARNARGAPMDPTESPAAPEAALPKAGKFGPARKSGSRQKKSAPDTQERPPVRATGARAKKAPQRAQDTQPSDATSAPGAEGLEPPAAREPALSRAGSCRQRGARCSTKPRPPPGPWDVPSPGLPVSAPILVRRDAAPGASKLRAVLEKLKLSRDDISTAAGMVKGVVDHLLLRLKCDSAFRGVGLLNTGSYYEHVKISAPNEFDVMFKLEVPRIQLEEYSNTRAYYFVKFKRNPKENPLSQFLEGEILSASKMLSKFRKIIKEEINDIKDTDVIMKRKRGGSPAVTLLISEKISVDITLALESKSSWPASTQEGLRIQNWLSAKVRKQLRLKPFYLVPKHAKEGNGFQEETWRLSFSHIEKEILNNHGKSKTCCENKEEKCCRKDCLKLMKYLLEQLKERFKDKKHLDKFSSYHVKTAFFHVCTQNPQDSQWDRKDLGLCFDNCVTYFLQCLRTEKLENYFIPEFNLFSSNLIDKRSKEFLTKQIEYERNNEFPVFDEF

In the case of “G*C*G*G*T*A*T*C*C*A*T*G*T*C*C*C*A*G*G*C (GCGGTATCCATGTCCCAGGC; DNA, all phosphorothioate, methylation of C not given here) [C2-Mut1-PS]”, in data set [1], the “inhibition of ISD45-driven ISRE-luciferase (in words)” value is on record as “significantly decreased”. For the same substance, in data set [2], the “inhibition of ISD70-driven IP-10 production (in words)” value is recorded as “significantly decreased”. Regarding “mC*mU*mU*mU*mA*G*T*C*G*T*A*G*T*T*G*mC*mU*mU*mC*mC (CUUUAGTCGTAGTTGCUUCC; sugars from the 5' end m5 d10 m5, all phosphorothioate, methylation of C not given here) [ASO11]”, in data set [3], the “inhibition of TLR9 sensing of ODN2006 (in words)” value was “lacked the capacity to inhibit TLR9”. Further, the “effect on ISD70-induced IP-10 production at increased doses (in words)” value in data set [4] is “blocked ISD70-induced IP-10 production”. On to “mG*mC*mG*mG*mU*A*T*A*C*A*G*G*T*C*C*mC*mA*mG*mG*mC (GCGGUATACAGGTCCCAGGC; sugars from the 5' end m5 d10 m5, all phosphorothioate, methylation of C not given here) [C2-Mut2]”, for which the “effect on ISD70-induced IP-10 production at low dose (in words)” value (shortened to “effect … at low dose (in words)”) in data set [4] was “increased inhibitory activity”. Take “mG*mG*mU*mC*mU*T*G*G*C*T*T*C*G*T*G*mG*mA*mG*mC*mA (mG*mG*mU*mC*mU*dT*dG*dG*dC*dT*dT*dC*dG*dT*dG*mG*mA*mG*mC*mA; antisense) [ASO5]”: the “inhibition of TLR9 sensing of ODN2006 (in words)” value in data set [3] is on record as “significantly inhibited TLR9 sensing of ODN2006”. In addition, in data set [5], the “inhibition of polyI:C sensing by TLR3 at 100 nM (in words)” value is listed as “retained significant inhibition of polyL:C sensing”. As for “mU*mC*mC*mG*mG*C*C*T*C*G*G*A*G*T*C*mU*mC*mC*mA*mU (mU*mC*mC*mG*mG*dC*dC*dT*dC*dG*dG*dA*dG*dT*dC*mU*mC*mC*mA*mU; antisense) [ASO2up]”, the “effect … at low dose (in words)” value in data set [4] is reported as “more potent inhibitor of ISD70-driven IP-10 production than ASO2”.

“mU*mC*mC*mG*mG*C*C*T*C*G*G*C*A*G*A*mU*mA*mU*mC*mG (mU*mC*mC*mG*mG*dC*dC*dT*dC*dG*dG*dC*dA*dG*dA*mU*mA*mU*mC*mG; antisense) [ASO2down]”: in data set [3], the “inhibition of TLR9 sensing of ODN2006 (in words)” value is given as “significantly reduced TLR9 inhibition”. Moreover, the “effect … at low dose (in words)” value in data set [4] is “significantly increased IP-10 production”. Besides, the “inhibition of ISD70-driven IP-10 production (in words)” value in data set [2] is recorded as “significantly less inhibitory than ASO2up”. For “mU*mG*mA*mU*mU*C*C*A*A*A*G*C*C*A*G*mG*mG*mU*mU*mA (mU*mG*mA*mU*mU*dC*dC*dA*dA*dA*dG*dC*dC*dA*dG*mG*mG*mU*mU*mA) [ASO10]”, the “inhibition of TLR9 sensing of ODN2006 (in words)” value in data set [3] is reported as “significantly inhibited TLR9 sensing of ODN2006”. The “effect on ISD70-induced IP-10 production at increased doses (in words)” value in data set [4] was “blocked ISD70-induced IP-10 production”.

The values above are taken from patent US20240384268A1, “Oligonucleotides” (Hudson Institute of Medical Research, priority 2021, published 2024).
